Values quoted from earlier work in patent US6770269B1, “Cosmetic and dermatological light-protective formulations containing triazine derivatives and one or several esters of unbranched-chain carboxylic acids and branched-chain alcohols” (Beiersdorf AG, priority 1998, dated 2004).

corresponding dissolved, and therefore active, UV filter substance (corresponds to the maximum solubility in known solvents): 1-1.5 % by weight | maximum amount of the filter that known solvents can dissolve (known solvents (lipids), prior art): about 15 % by weight
Compound: CCCCC(CC)COC(=O)c1ccc(Nc2nc(Nc3ccc(C(=O)OCC(CC)CCCC)cc3)nc(Nc3ccc(C(=O)OCC(CC)CCCC)cc3)n2)cc1 (centres unmarked) [UVINUL7 T 150, tris(2-ethylhexyl) 4,4′,4″-(1,3,5-triazine-2,4,6-triyltriimino)trisbenzoate]
